# In US8968453B2, “Anthrapyridone sulfonic acid compounds and their preparation methods and applications” (Zhuhai Ninestar Management Co., Ltd., priority 2011, dated 2015):
# How the values were obtained:
# Assay type in all cases: physicochemical
# [1] = Gas (ozone) resistance of the printed images; conditions: grade of color difference ΔE; ink with 6 portions dye on glossy photo paper; 40 ppm ozone, 60% RH, 24° C.
# Text: Prepare the ink composition of Table 8 with the product obtained in Embodiment 1-11 as the coloring agent, and filter the ink composition with 0.45 μm membrane filter to obtain the magenta ink composition of the present invention. Add ion exchange water and triethanolamine to adjust the pH value of the ink composition to 8-10 and the weight to 100 portions. By the same methods, prepare ink compositions with control sulfonic-group-free anthrone dyes Dye1 and Dye2, hydrolytic derivatives of commercial dye C.I. reactive red 180 (reactive red 180 for short) and C.I. direct red 227 for comparison. Use an ink-jet printer (Epson 270 manufactured by Epson Company), glossy photo paper (Epson) and the above described ink compositions for ink-jet printing. (2) Gas Resistance of the Printed Images Place the printed images in the Ozone Weathering Test Chamber (manufactured by China Surui Company) at 60% RH, 24° C. and 40 ppm ozone. Calculated the color difference (ΔE) before and after the test by the same method as described in (1) above and evaluate it in 3 grades based on the following benchmark: • ΔE<10 ∘ • ΔE<20 Δ • ΔE>20 x
# [2] = Printed images light resistance test with xenon lamp; conditions: grade of color difference ΔE; ink with 6 portions dye on glossy photo paper; xenon lamp 0.36 W/m^2, 50 h, 60% RH, 24° C.
# Text: (§1) Prepare the ink composition of Table 8 with the product obtained in Embodiment 1-11 as the coloring agent, and filter the ink composition with 0.45 μm membrane filter to obtain the magenta ink composition of the present invention. Add ion exchange water and triethanolamine to adjust the pH value of the ink composition to 8-10 and the weight to 100 portions. By the same methods, prepare ink compositions with control sulfonic-group-free anthrone dyes Dye1 and Dye2, hydrolytic derivatives of commercial dye C.I. reactive red 180 (reactive red 180 for short) and C.I. direct red 227 for comparison.
# (§2) Use an ink-jet printer (Epson 270 manufactured by Epson Company), glossy photo paper (Epson) and the above described ink compositions for ink-jet printing.
# (1) Printed Images Light Resistance Test with Xenon Lamp
# Irradiate the printed glossy photo paper manufactured by Canon and Epson with Xenon-lamp Weathering Test Chamber ZG-P (manufactured by China Surui Company) at 60% RH and 24° C. with illuminance of 0.36 W/m^2 for 50 h to test the color difference (ΔE) before and after the test. The color difference (ΔE) is calculated from the differences of values of L*, a*, b* before and after the test in the above described color measurement system (Unterlab) by the followings formula: ΔE=((difference of L*)^2+(difference of a*)^2+(difference of b*)^2)^1/2.
# Three grades will be divided for the evaluation based on the following benchmark: • ΔE<10 ∘ • ΔE<20 Δ • ΔE>20 x
# [3] = Wet resistance of the printed images; set-up: key: No bleeding ∘; Slight bleeding Δ; Notable bleeding x; conditions: bleeding judged by bare eyes; 50° C., 90% RH, 168 h
# Text: as §1, §2
# (3) Wet Resistance of the Printed Images
# Place the printed images in the Constant Temperature and Humidity Chamber (manufactured by China Surui Company) at 50° C. and 90% RH for 168 h; judge the bleeding of the ink by bare eyes before and after the test and evaluate it in 3 grades based on the following benchmark: • No bleeding ∘ • Slight bleeding Δ • Notable bleeding x
# [4] = Evaluation of solubility and solution stability; set-up: key: No precipitation ∘; Slight precipitation Δ; Notable x; conditions: 20 portions dye, 70 portions water, 10 portions ethylene glycol; 50° C. 7 d, then 0° C. 7 d; precipitation on filtering
# Protocol: (D) Evaluation of Solubility and Solution Stability
# Heat and dissolve the system of 20 portions of dyes, 70 portions of water and 10 portions of ethylene glycol; after the solution cools down, store it airtight at a constant temperature of 50° C. for 7 d; cool it down and store it at 0° C. for 7 d; filter the solution and evaluate it in 3 grades based on the following benchmark: • No precipitation ∘ • Slight precipitation Δ • Notable x
SMILES,Ozone resistance of printed images [1],UV resistance of printed images [2],Water resistance of printed images [3],Solubility and stability of dyes in aqueous solvent system [4]
O=C(c1cccc(S(=O)(=O)O)c1)c1c2c3c(c(Nc4cc(S(=O)(=O)CCSCCCS(=O)(=O)O)c(S(=O)(=O)O)cc4S(=O)(=O)O)cc(S(=O)(=O)O)c3[nH]c1=O)C(=O)c1ccccc1-2 [Dye B3],∘ (ΔE<10 ∘),∘ (ΔE<10 ∘),∘,∘
CCN(CC)CCS(=O)(=O)c1cc(Nc2cc(S(=O)(=O)O)c3[nH]c(=O)c(C(=O)c4cccc(S(=O)(=O)O)c4)c4c3c2C(=O)c2ccccc2-4)c(S(=O)(=O)O)cc1S(=O)(=O)O [Dye B4],∘ (ΔE<10 ∘),∘ (ΔE<10 ∘),∘,∘
CC(=O)Nc1cc(Nc2cc(S(=O)(=O)O)c3[nH]c(=O)c(C(=O)c4cccc(S(=O)(=O)O)c4)c4c3c2C(=O)c2ccccc2-4)c(S(=O)(=O)O)cc1S(=O)(=O)O [Dye C5],∘ (ΔE<10 ∘),∘ (ΔE<10 ∘),∘,∘
O=C(c1cccc(S(=O)(=O)O)c1)c1c2c3c(c(Nc4ccc(S(=O)(=O)O)cc4S(=O)(=O)O)cc(S(=O)(=O)O)c3[nH]c1=O)C(=O)c1ccccc1-2 [Dye C1],∘ (ΔE<10 ∘),∘ (ΔE<10 ∘),∘,∘
"CCN(CC)CCS(=O)(=O)c1ccc(S(=O)(=O)O)c(Nc2ccc3[nH]c(=O)c(C(=O)c4cccc(S(=O)(=O)O)c4)c4c3c2C(=O)c2ccccc2-4)c1 [Dye1, reference compound]",Δ (ΔE<20 Δ),Δ (ΔE<20 Δ),∘,Δ
O=C(c1cccc(S(=O)(=O)O)c1)c1c2c3c(c(Nc4cc(S(=O)(=O)CCSCCCS(=O)(=O)O)ccc4S(=O)(=O)O)cc(S(=O)(=O)O)c3[nH]c1=O)C(=O)c1ccccc1-2 [Dye B1],∘ (ΔE<10 ∘),∘ (ΔE<10 ∘),∘,∘
"O=S(=O)([O-])c1cc(Nc2nc(Nc3ccc(/C=C/c4ccc(Nc5nc(Nc6cc(S(=O)(=O)[O-])cc7cc(S(=O)(=O)[O-])c(N=Nc8ccccc8)c(O)c67)nc(N6CCOCC6)n5)cc4S(=O)(=O)[O-])c(S(=O)(=O)[O-])c3)nc(N3CCOCC3)n2)c2c(O)c(N=Nc3ccccc3)c(S(=O)(=O)[O-])cc2c1.[Na+].[Na+].[Na+].[Na+].[Na+].[Na+] [C.I. direct red 227, reference compound]",x (ΔE>20 x),x (ΔE>20 x),Δ,Δ
CCN(CC)CCS(=O)(=O)c1ccc(S(=O)(=O)O)c(Nc2cc(S(=O)(=O)O)c3[nH]c(=O)c(C(=O)c4cccc(S(=O)(=O)O)c4)c4c3c2C(=O)c2ccccc2-4)c1 [Dye B2],∘ (ΔE<10 ∘),∘ (ΔE<10 ∘),∘,∘
"CC(=O)Nc1cc(Nc2ccc3[nH]c(=O)c(C(=O)c4cccc(S(=O)(=O)O)c4)c4c3c2C(=O)c2ccccc2-4)c(S(=O)(=O)O)cc1S(=O)(=O)O [Dye2, reference compound]",Δ (ΔE<20 Δ),Δ (ΔE<20 Δ),∘,Δ

# The remaining lines, values ahead:
Ozone resistance of printed images [1],UV resistance of printed images [2],Water resistance of printed images [3],Solubility and stability of dyes in aqueous solvent system [4],SMILES
Δ (ΔE<20 Δ),∘ (ΔE<10 ∘),∘,Δ,Cc1ccc(S(=O)(=O)Nc2cc(Nc3cc(S(=O)(=O)O)c4[nH]c(=O)c(C(=O)c5cccc(S(=O)(=O)O)c5)c5c4c3C(=O)c3ccccc3-5)c(S(=O)(=O)O)cc2S(=O)(=O)O)cc1 [Dye D4]
∘ (ΔE<10 ∘),∘ (ΔE<10 ∘),∘,∘,O=C(O)c1cc(Oc2nc(Nc3cc(Nc4cc(S(=O)(=O)O)c5[nH]c(=O)c(C(=O)c6cccc(S(=O)(=O)O)c6)c6c5c4C(=O)c4ccccc4-6)c(S(=O)(=O)O)cc3S(=O)(=O)O)nc(N(CCO)CCO)n2)cc(C(=O)O)c1 [Dye D2]
∘ (ΔE<10 ∘),∘ (ΔE<10 ∘),∘,∘,O=C(O)c1cc(Oc2nc(Nc3cc(Nc4cc(S(=O)(=O)O)c5[nH]c(=O)c(C(=O)c6cccc(S(=O)(=O)O)c6)c6c5c4C(=O)c4ccccc4-6)c(S(=O)(=O)O)cc3S(=O)(=O)O)nc(Oc3cc(C(=O)O)cc(C(=O)O)c3)n2)cc(C(=O)O)c1 [Dye D1]
Δ (ΔE<20 Δ),∘ (ΔE<10 ∘),∘,∘,CN(c1nc(Oc2cc(C(=O)O)cc(C(=O)O)c2)nc(N(CCO)CCO)n1)c1cc(S(=O)(=O)O)c(Nc2cc(S(=O)(=O)O)c3[nH]c(=O)c(C(=O)c4cccc(S(=O)(=O)O)c4)c4c3c2C(=O)c2ccccc2-4)cc1S(=O)(=O)O [Dye D3]
